Assay results from patent publication US11401516B2, “Channel modulators” (AUCKLAND UNISERVICES LIMITED, priority 2014, dated 2022).

Assays:
Format in all cases: cell-based, human
[1] = test system: Cx43 hemichannel and pannexin channel mediated ATP release from hCMVEC cells; assay: In vitro ischaemia injury ATP assay; conditions: for ATP release, percentage of the injury control: 2-hour injury
Protocol: (§1) Using an in vitro ischemia injury model, the Cx43 hemichannel and pannexin channel mediated ATP release was differentiated using the connexin hemichannel blocking mimetic peptide5 at 100 μM concentration (S. J. O'Carroll, et al., Cell communication & adhesion 15, 27 (May, 2008)) and 1 mM Probenecid (W. R. Silverman et al., The Journal of biological chemistry 284, 18143 (Jul. 3, 2009)).
Human cerebral microvascular endothelial cells (hCMVEC) were trypsinised (TrypLE Express, Life technologies) and plated at a density of 0.025×10^6 cells per well in a collagen-coated 12-well plate (1 μg/cm2) a day prior to the experiment. Cells were incubated in culture medium overnight. Hypoxic, acidic, ion-shifted Ringer injury solution that mimics ionic concentrations and acid-base shifts of the interstitial space in hypoxic-ischemic brains (A. Bondarenko, et al., Glia 34, 143 (Apr. 15, 2001)) was used to trigger hemichannel opening. The injury solution (in mM): 38 NaCl, 13 NaHCO3, 3 Na-gluconate, 65 K-gluconate, 38 NMDG-Cl, 1 NaH2PO4, 1.5 MgCl2, was bubbled in N2 gas (>99% purity, 20 L/min) for 5 minutes and pH adjusted to 6.6 using 5 M HCl. Control solution that mimics physiological conditions contained (in mM): 124 NaCl, 3 KCl, 26 NaHCO3, […], 1 NaH2PO4, 1.3 CaCl2, 1.5 MgCl2, and 10 Glucose, and pH 7.4 was adjusted using 5 M HCl (Bondarenko, 2001). […] Following a 2-hour injury the solutions were immediately placed on ice. In the injury and reperfusion model, hCMVEC cells were incubated in 500 μL of normal solution or injury solution for 2 hours at 37° C. in 95% O2 and 5% CO2. Following 2 hour injury, the solutions were discarded and replaced with 500 μL of the normal solution, or Tonabersat (10 μM) dissolved in normal solution, and were incubated for 2 hours at 37° C. in 95% O2 and 5% CO2. These solutions were also then immediately placed on ice. Peptide5 (100 μM)+/−Probenecid (1 mM) were used as controls for both injury and injury-reperfusion models. ATP concentration in the samples was determined using a Luciferin/luciferase bioluminescence reaction (ATP Determination Kit, Molecular Probes) and detected using a luminescence plate reader (VICTOR X, Perkin Elmer #2030-0010). Standard curves were generated in each experiment from an ATP standard (500 nM) to quantify the concentration of ATP in the test samples. The data is presented as mean±standard error relative to the injury or injury-reperfusion control. Statistically significant differences between samples were identified using one-way analysis of variance and Tukey's multiple comparisons test.

[2] = test system: Cx43 hemichannel and pannexin channel mediated ATP release from hCMVEC cells; assay: In vitro ischaemia injury-reperfusion ATP assay; conditions: 2-hour injury then 2-hour reperfusion; 100 μM CBX, 100 μM Peptide5, 1 mM Probenecid, 10 μM Tonabersat
Protocol: as §1
Human cerebral microvascular endothelial cells (hCMVEC) were trypsinised (TrypLE Express, Life technologies) and plated at a density of 0.025×10^6 cells per well in a collagen-coated 12-well plate (1 μg/cm2) a day prior to the experiment. Cells were incubated in culture medium overnight. Hypoxic, acidic, ion-shifted Ringer injury solution that mimics ionic concentrations and acid-base shifts of the interstitial space in hypoxic-ischemic brains (A. Bondarenko, et al., Glia 34, 143 (Apr. 15, 2001)) was used to trigger hemichannel opening. […] ATP concentration in the samples was determined using a Luciferin/luciferase bioluminescence reaction (ATP Determination Kit, Molecular Probes) and detected using a luminescence plate reader (VICTOR X, Perkin Elmer #2030-0010). Standard curves were generated in each experiment from an ATP standard (500 nM) to quantify the concentration of ATP in the test samples. […]

hCMVEC cells = assay: MTT assay for cell viability; conditions: 200 μM, 24-hour treatment
Protocol: Stock MTT was prepared by dissolving 5 mg in 1 mL PBS producing a concentration of 5 mg/mL. After the treatment incubation period of cells seeded in a 96 well-plate (at 1×10^4 cells/well) the media was removed and replaced with 100 μL of PBS. 10 μL of MTT stock solution was added to each well, except for those that were used as a blank, and left to incubate at 37° C. for 4 hours at which time the solutions was aspirated from each well. Then 50 μL DMSO (Sigma) was added to each well to dissolve the crystalline product. Viability was determined by measuring the absorbance of the purple crystal produced. This was measured by reading the absorbance at 595 nm in a plate reader; the data was standardized to each control as an internal standard. Statistically was investigated using One-way ANOVA and Tukey's post hoc test where *p<0.05.

For `CC(=O)c1ccc2c(c1)[C@H](NC(=O)c1ccc(F)c(Cl)c1)[C@H](O)C(C)(C)O2` [Tonabersat, N-[(3S,4S)-6-acetyl-3-hydroxy-2,2-dimethyl-3,4-dihydrochromen-4-yl]-3-chloro-4-fluorobenzamide], the “difference between CBX and 10 μM Tonabersat in 1 mM Probenecid” value [1] was 14.9±4%, the “ATP release, percentage of the injury control” value ([1]; 0.1 μM Tonabersat in combination with 1 mM Probenecid) was 85.9±2.4% and the “ATP release from hCMVEC cells” value ([1]; 0.1 μM to 100 μM Tonabersat in the absence of 1 mM Probenecid) was “did not reduce ATP release”. The “ATP release, percentage of the injury control” value ([1]; 1 μM Tonabersat in combination with 1 mM Probenecid) was 75.9±2.3%, the “ATP release, percentage of the injury control” value ([1]; 10 μM Tonabersat in combination with 1 mM Probenecid) was 58.5±1.9% and the “ATP release, percentage of the injury control” value ([1]; 100 μM Tonabersat in combination with 1 mM Probenecid) was 70.5±3.9%. For the same molecule, the “difference in inhibition, 10 μM versus 100 μM Tonabersat” value ([1]; each with 1 mM Probenecid) was 12.1±3.2%, the “ATP release, percentage of the injury-reperfusion (IR) control” value [2] was 68.9±6.9% and the cell viability (hCMVEC cells) was “did not significantly reduce cell viability”.
